According to patent US12357636B2 (Urovant Sciences GmbH, priority 2018, dated 2025):
Like-named read-outs stand apart in the source and are kept apart here.

Legend:
[1] = target: β2-AR (Homo sapiens, UniProt P07550); experiment: competition binding assay, membranes with recombinant β2-AR
[2] = human plasma protein binding; format: in vitro ADME
[3] = multiple rising dose Phase 1 pharmacokinetics; format: in vivo, human
Excerpt: Although exposures were similar in middle-aged males when compared to young males, plasma concentrations were higher in elderly compared to middle-aged and young subjects.

[4] = PK in renal impairment, single dose 100 mg; format: in vivo, human; conditions: for CL/F / Fe[urine] 48 hr / AUC0-inf: single 100 mg
Description: The relationship between clearance and renal function was modeled using linear regression.

[5] = PK in moderate hepatic impairment, single dose 100 mg; format: in vivo, human; conditions: single 100 mg, healthy matched control subjects
[6] = drug interaction: effect of ketoconazole, diltiazem or tolterodine on vibegron PK; format: in vivo, human
Excerpt: However, these interactions are not expected to be clinically significant.

[7] = system: men and women with OAB; experiment: Phase 2b study in OAB: efficacy (voiding diary); format: in vivo, human; conditions: OAB Wet
Excerpt: Part 2 was designed to continue to assess the safety and efficacy of concomitant dosing. […] Subjects in both Part 1 and Part 2 had the option of enrolling in a 1-year extension. Participants were required to keep a voiding diary, recording the occurrence of each strong urge, total incontinence, and urge incontinence episode. Efficacy data for Part 1 and Part 2 are summarized herein.
The total number of urgency incontinence episodes must have exceeded the total number of stress incontinence episodes for all subjects.
Conversely, a dose dependent effect on urge incontinence or total incontinence was not observed.

[8] = system: patients with overactive bladder
Excerpt: A placebo group was included in the main study, and a group that received tolterodine monotherapy was included in the main study and in the extension.

[9] = system: healthy subjects; experiment: multiple-dose Phase 1 study: maximum MA4 heart rate; format: in vivo, human; conditions: Day 14
Description: More intensive assessments of heart rate and blood pressure were performed in healthy volunteers in several Phase 1 studies. […] Doses ranged from 25 to 400 mg once daily for 7 to 28 days depending on the cohort. Least squares mean and 90% confidence intervals of maximum change from baseline in moving average of heart rate over 4 hours postdose (MA4 HR) are presented in Table 18.

[10] = dose-Cmax and dose-AUC models, log-log regression and simulations for 75 mg; set-up: species or system human
Description: In order to contextualize PK parameters of a 75 mg dose, dose-Cmax and dose-AUC models were created using data from Phase 1 studies.

[11] = system: men and women with overactive bladder; experiment: Phase 3 study vibegron 75 mg: post-void residual urine volume (Tables 26-28); format: in vivo, human
Excerpt: The risk of acute urinary retention or morbidities related to an increase in Post-Void Residual (PVR) is a concern with antimuscarinic therapy that promotes smooth muscle relaxation by inhibiting acetylcholine-induced smooth muscle contraction. If, during contraction, the bladder cannot generate enough pressure to overcome the outlet resistance in the urethra, either because of poor detrusor contractility or profound obstruction (most commonly from BPH), acute urinary retention or incomplete emptying of the bladder may result.
The volume of urine that remains in the bladder after voiding (PVR) is an objective measurement that may serve as a proxy for impaired ability to void.
PVR were performed via ultrasound at the visits indicated in the Schedule of Activities.
In addition, the data on the Post Void Residual Urine Volume (PVR) in all males and males with a medical history of BPH is shown in Tables 26 and 27, respectively.

[12] = system: men and women with overactive bladder; experiment: Phase 3 study vibegron 75 mg: safety and tolerability; format: in vivo, human; conditions: 75 mg QD, 12 weeks
Description: Safety analyses were conducted using the SAF and summarized by treatment group as treated. The treatment-emergent period is defined as the period of time from the first dose date of the double blinded Study Treatment through 28 days after the last dose of Study Treatment, or the date of initiation of another investigational agent or surgical intervention or rollover to the extension study, whichever occurs first. Safety was assessed through summaries of adverse events, the frequency of treatment discontinuations due to adverse events, and clinical laboratory evaluations.

[13] = system: healthy subjects; conditions: in vivo
[14] = system: healthy subjects
Description: Safety data from 16 Phase 1 studies, which include 15 completed Phase 1 studies and 1 study that was terminated early (this study was terminated for reasons unrelated to efficacy or safety) was collected.

[15] = human, in vivo
[16] = healthy matched control subjects
[17] = multiple doses of 240 mg or 180 mg diltiazem, vibegron 100 mg
[18] = Males with medical history of BPH
[19] = all males, vibegron 75 mg or tolterodine ER 4 mg QD

β2-AR, sequence (P07550 whole entry): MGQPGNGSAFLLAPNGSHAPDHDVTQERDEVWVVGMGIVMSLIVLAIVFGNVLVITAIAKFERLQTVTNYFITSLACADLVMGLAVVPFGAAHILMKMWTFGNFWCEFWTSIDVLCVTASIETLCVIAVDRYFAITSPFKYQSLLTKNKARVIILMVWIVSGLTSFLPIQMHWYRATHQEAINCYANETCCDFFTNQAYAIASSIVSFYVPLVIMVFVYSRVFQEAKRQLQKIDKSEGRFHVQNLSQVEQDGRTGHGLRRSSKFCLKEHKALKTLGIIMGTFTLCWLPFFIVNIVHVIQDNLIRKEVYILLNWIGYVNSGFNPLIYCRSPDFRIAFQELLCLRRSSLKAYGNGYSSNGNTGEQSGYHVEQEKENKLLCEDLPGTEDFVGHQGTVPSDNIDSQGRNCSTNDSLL

## O=C(Nc1ccc(C[C@@H]2CC[C@H]([C@H](O)c3ccccc3)N2)cc1)[C@@H]1CCc2nccc(=O)n21 [Vibegron, (6S)—N-[4-[[(2S,5R)-5-[(R)-hydroxy(phenyl)methyl]pyrrolidin-2-yl]methyl]phenyl]-4-oxo-7,8-dihydro-6H-pyrrolo[1,2-a]pyrimidine-6-carboxamide]
[1]
  binding to β2-AR: does not bind
[2]
  bound to human plasma proteins: approximately 49%
[3]; 100 mg QD
  steady state Cmax, elderly compared to young males: ~1.3 fold
[3]; 100 mg, elderly subjects
  fe0-24hr, ss: ~17%
[3]; 200 mg multiple dose, day 14, healthy young males
  AUC0-24: 3200 ± 1120 ng·h/mL
[3]; 100 and 150 mg, young males
  fe0-24hr, ss: ~14%
[3]; Day 14
  steady state exposure (AUC0-24) higher in elderly Japanese than elderly non-Japanese: 35%
[3]; in vivo
  Cmax increase in elderly Japanese compared to elderly non-Japanese: 82%
  higher Cmax in elderly and females than healthy young males: 50-70%
  steady state AUC, middle-aged females compared to middle-aged males: ~1.5 fold
  steady state exposures higher in Japanese than non-Japanese young males: ~30%
[3]; once daily dosing
  time to steady state: ≤ 7 days
[3]; regardless of age
  exposure (AUC) higher in females compared with males: 50%
[4]; in vivo
  mean increase in AUC, moderate renal impairment vs normal renal function: 1.6 fold
[4]; mild renal impairment
  AUC0-inf higher compared to healthy matched controls: 49%
  CLR reduced compared to healthy matched controls: 39%
  Cmax higher compared to healthy matched controls: 96%
  AUC0-inf: 2290 ng·h/mL
  CL/F: 43.6 L/h
  Fe[urine] 48 hr: 8.5%
[4]; moderate renal impairment
  AUC0-inf higher compared to healthy matched controls: 106%
  CLR reduced compared to healthy matched controls: 65%
  Cmax higher compared to healthy matched controls: 68%
  CL/F: 31.5 L/h
  Fe[urine] 48 hr: 5.5%
[4]; severe renal impairment
  AUC0-inf higher compared to healthy matched controls: 83%
  CLR reduced compared to healthy matched controls: 82%
  Cmax higher compared to healthy matched controls: 42%
  AUC0-inf: 2820 ng·h/mL
  CL/F: 35.5 L/h
  Fe[urine] 48 hr: 2.1%
[4]; [16]
  CL/F: 64.9 L/h
  Fe[urine] 48 hr: 7.9%
[4]; slope of linear regression
  CL/F increase per one mL/min/1.73 m2 increase in eGFR: ~0.8%
[5]
  Apparent terminal t1/2: 92.5 (9.37%) hr
[6]; in vivo
  effect of tolterodine ER 4 mg on the pharmacokinetics of vibegron: no effect
[6]; [17]
  GM AUC0-inf increase with diltiazem: 63%
  GM Cmax increase with diltiazem: 68%
[7]; vibegron 15 mg QD
  Urgency Incontinence Episodes daily number, Week 8 mean: 1.12
[7]; vibegron 100 mg QD
  Total Incontinence Episodes daily number, Week 8 mean: 1.12
[8]; 3 mg QD
  Accidental overdose: 3 (2.1) n (%)
[8]; 15 mg QD
  Accidental overdose: 6 (4.5) n (%)
[8]; 50 mg QD
  Accidental overdose: 4 (2.7) n (%)
[8]; 100 mg QD
  Accidental overdose: 11 (4.2) n (%)
  ≥1 AE: 107 (41.0) n (%)
[8]; human, in vivo
  frequency of injuries: 0.9%
[9]; 25 mg QD
  Maximum MA4 HR change from baseline, LS mean: 1.47 bpm
  Maximum MA4 HR, difference from placebo: −1.60 bpm
[9]; 50 mg QD
  Maximum MA4 HR change from baseline, LS mean: 1.50 bpm
  Maximum MA4 HR, difference from placebo: −1.57 bpm
[9]; 100 mg QD
  Maximum MA4 HR change from baseline, LS mean: 3.28 bpm
[9]; 150 mg QD
  Maximum MA4 HR change from baseline, LS mean: 3.17 bpm
  Maximum MA4 HR, difference from placebo: 0.10 bpm
[9]; 200 mg QD
  Maximum MA4 HR change from baseline, LS mean: 5.67 bpm
  Maximum MA4 HR, difference from placebo: 2.60 bpm
[9]; 300 mg QD
  Maximum MA4 HR change from baseline, LS mean: 9.06 bpm
  Maximum MA4 HR, difference from placebo: 5.98 bpm
[9]; 400 mg QD
  Maximum MA4 HR change from baseline, LS mean: 10.33 bpm
  Maximum MA4 HR, difference from placebo: 7.26 bpm
[10]
  AUC of 75 mg lower than 200 mg single dose: ~2 fold
  AUC of 75 mg lower than 400 mg single dose: ~6 fold
  Cmax of 75 mg lower than 200 mg single dose: approximately 3.3 fold
  Cmax of 75 mg lower than 400 mg single dose: ~9.2 fold
  increase in Cmax with increase in dose from 50 to 100 mg: ~4 fold
  reduction in Cmax on decreasing dose from 100 mg to 75 mg: ~40%
[11]; [18]
  PVR Categories at Week 12: <100 mL: 96.6%
  PVR Categories at Week 12: ≥100 mL to <200 mL: 0%
  PVR Categories at Week 12: ≥200 mL to <350 mL: 3.4%
  PVR Categories at Week 12: ≥350 mL: 0%
  PVR Mean Change from Baseline at Week 12 (SD): −3.4 (42.45) mL
[11]; [19]
  PVR Mean Change from Baseline at Week 12 (SD): 2.2 (48.45) mL
  PVR category <100 mL at Week 12: 89.7%
  PVR category ≥100 mL to <200 mL at Week 12: 7.7%
  PVR category ≥200 mL to <350 mL at Week 12: 2.6%
  PVR category ≥350 mL at Week 12: 0
[11]; study population as a whole
  PVR Categories at Week 12: <100 mL: 89.9%
  PVR Categories at Week 12: ≥100 mL to <200 mL: 3.5%
  PVR Categories at Week 12: ≥200 mL to <350 mL: 0.6%
  PVR Categories at Week 12: ≥350 mL: 0%
  PVR Mean Change from Baseline at Week 12 (SD): 0.4 (38.27) mL
[12]
  tolerability: favorable
[13]
  thorough QT study finding: no clinically meaningful effect on QTc or blood pressure
[14]; Phase 1 program
  treatment-emergent SAEs or deaths: no treatment-emergent serious adverse events (SAEs) or deaths reported
[14]; single 2 to 600 mg, multiple 25 to 400 mg up to 28 days
  tolerability across the Phase 1 program: generally well tolerated
[15]
  dose recovered in feces: approximately 59%
  dose recovered in urine: ~20%
